Data: patent US20230357162A1, “COMPOUNDS, COMPOSITIONS AND METHODS” (Denali Therapeutics Inc., priority 2020, published 2023)

Tested on: IL-1β secretion, THP-1 cells
Assay: IL-1β secretion assay in PMA-differentiated THP-1 cells stimulated with LPS and nigericin (ELISA readout)
Assay type: cell-based
Conditions: 25 ng/mL LPS then nigericin
Procedure, shortened: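 THP-1 cells differentiated with 5 ng/mL PMA for 40 h, primed in serum-free medium with 25 ng/mL LPS for 2 h, then compound (0.5% DMSO) for 1 h before nigericin for 2 h at 37°C. Supernatant IL-1β quantified by ELISA; normalized to high (LPS + 5 µM nigericin) and low (LPS only) controls.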

[1] = Homo sapiens, THP-1, inhibition of IL-1β secretion, class column of Table 3
[2] = Homo sapiens, THP-1, inhibition of IL-1β secretion, numeric column of Table 3
[3] = inhibition of IL-1β secretion, class column of Table 3
[4] = inhibition of IL-1β secretion, numeric column of Table 3

Compound | IC50 [1] [µM] | IC50 [2] [µM] | IC50 [3] [µM] | IC50 [4] [µM]
CC(C)c1nn(CC(=O)Nc2ccc3cnn(C)c3c2)c(=O)c2ccc(Br)cc12 [Example 61, 2-(6-bromo-1-oxo-4-propan-2-ylphthalazin-2-yl)-N-(1-methylindazol-6-yl)acetamide] | < 10 | 0.943 | – | –
O=C(Cn1nc(OC2CCC2)c2cc(Br)ccc2c1=O)Nc1ncc(F)cn1 [Example 153, 2-(6-bromo-4-cyclobutyloxy-1-oxophthalazin-2-yl)-N-(5-fluoropyrimidin-2-yl)acetamide] | < 10 | 0.147 | – | –
CC(C)c1nn(CC(=O)NC2CC(n3cccn3)C2)c(=O)c2ccc(Br)cc12 (stereo not drawn) [Example 117, 2-(6-bromo-1-oxo-4-propan-2-ylphthalazin-2-yl)-N-(3-pyrazol-1-ylcyclobutyl)acetamide] | < 10 | 6.45 | – | –
CC(C)Oc1nn(CC(=O)Nc2ncc(F)cn2)c(=O)c2ccc(Br)cc12 [Example 155, 2-(6-bromo-1-oxo-4-propan-2-yloxyphthalazin-2-yl)-N-(5-fluoropyrimidin-2-yl)acetamide] | < 10 | 5.95 | – | –
CC(C)c1nn(CC(=O)Nc2ncc(F)cc2C#N)c(=O)c2ccc(Br)cc12 [Example 114, 2-(6-bromo-1-oxo-4-propan-2-ylphthalazin-2-yl)-N-(3-cyano-5-fluoropyridin-2-yl)acetamide] | < 10 | 1.77 | – | –
COCCOc1nn(CC(=O)Nc2ncc(F)cn2)c(=O)c2ccc(Br)cc12 [Example 163] | < 10 | 3.77 | – | –
O=C(Cn1nc([C@H]2C[C@H]2F)c2cc(Br)ccc2c1=O)Nc1ncc(F)cn1 (single isomer, unassigned) [Example 166, 2-[6-bromo-4-[2-cis-fluorocyclopropyl]-1-oxophthalazin-2-yl]-N-(5-fluoropyrimidin-2-yl)acetamide] | – | – | < 10 | 0.237
CC(C)c1nn(CC(=O)N[C@@H]2CCCN(CC(F)(F)F)C2)c(=O)c2ccc(Br)cc12 [Example 7, (R)-2-(6-Bromo-4-isopropyl-1-oxophthalazin-2(1H)-yl)-N-(1-(2,2,2-trifluoroethyl)piperidin-3-yl)acetamide] | < 10 | 1.03 | – | –
CO[C@H]1C[C@@H](NC(=O)Cn2nc(C(C)C)c3cc(Br)ccc3c2=O)C1 [Example 77, 2-(6-bromo-1-oxo-4-propan-2-ylphthalazin-2-yl)-N-(3-cis-methoxycyclobutyl)acet amide] | < 10 | 3.85 | – | –
CC(C)c1nn(CC(=O)Nc2ncc(F)cc2F)c(=O)c2ccc(Br)cc12 [Example 38, 2-(6-bromo-1-oxo-4-propan-2-ylphthalazin-2-yl)-N-(3,5-difluoropyridin-2-yl)acetamide] | < 10 | 0.913 | – | –
CC(c1ccc2c(=O)n(CC(=O)Nc3ncncc3F)nc(Br)c2c1)C(F)(F)F (stereo not drawn) [Example 18, 2-[4-bromo-1-oxo-6-(1,1,1-trifluoropropan-2-yl)phthalazin-2-yl]-N-(5-fluoropyrimidin-4-yl)acetamide] | 10 to 15 | 10.7 | – | –
O=C(Cn1nc(C(F)F)c2nc(C(F)(F)F)ccc2c1=O)Nc1ncc(F)cn1 [Example 105, 2-[8-(difluoromethyl)-5-oxo-2-(trifluoromethyl)pyrido[2,3-d]pyridazin-6-yl]-N-(5-fluoropyrimidin-2-yl)acetamide] | < 10 | 0.614 | – | –
CC(O)c1nn(CC(=O)Nc2ncccn2)c(=O)c2ccc(Br)cc12 (single isomer, unassigned) [Example 102, 2-(6-bromo-4-(1-hydroxyethyl)-1-oxophthalazin-2(1H)-yl)-N-(pyrimidin-2-yl)acetamide] | – | – | < 10 | 2.44
O=C(Cn1nc(OC2COC2)c2cc(Br)ccc2c1=O)Nc1ncc(F)cn1 [Example 161] | < 10 | 3.63 | – | –
O=C(Cn1nc(C(F)CF)c2cc(Br)ccc2c1=O)Nc1ncc(F)cn1 (stereo not drawn) [Example 139, 2-[6-bromo-4-(1,2-difluoroethyl)-1-oxophthalazin-2-yl]-N-(5-fluoropyrimidin-2-yl)acetamide] | < 10 | 0.318 | – | –
COc1nn(CC(=O)Nc2ncc(F)cn2)c(=O)c2ccc(Br)cc12 [Example 32, 2-(6-bromo-4-methoxy-1-oxophthalazin-2-yl)-N-(5-fluoropyrimidin-2-yl)acetamide] | < 10 | 0.128 | – | –
O=C(Cn1nc(C(F)F)c2c(F)c(Br)ccc2c1=O)Nc1ncccn1 [Example 27, 2-[6-bromo-4-(difluoromethyl)-5-fluoro-1-oxophthalazin-2-yl]-N-pyrimidin-2-ylacetamide] | < 10 | 0.137 | – | –
O=C(Cn1nc(OC2CC2)c2cc(C3CC3)ccc2c1=O)Nc1ncc(F)cn1 [Example 173, 2-(6-cyclopropyl-4-cyclopropyloxy-1-oxophthalazin-2-yl)-N-(5-fluoropyrimidin-2-yl)acetamide] | < 10 | 0.12 | – | –
CC(C)c1nn(CC(=O)NC2CCC(F)(F)C2)c(=O)c2ccc(Br)cc12 (stereo not drawn) [Example 42, 2-(6-bromo-1-oxo-4-propan-2-ylphthalazin-2-yl)-N-(3,3-difluorocyclopentyl)acet amide] | < 10 | 3.35 | – | –
CC(Oc1nn(CC(=O)Nc2ncc(F)cn2)c(=O)c2ccc(Br)cc12)C1CC1 (stereo not drawn) [Example 169] | < 10 | 2.29 | – | –
CC(F)c1nn(CC(=O)Nc2ncccn2)c(=O)c2cc(Br)ccc12 (stereo not drawn) [Example 81, 2-[7-bromo-4-(1-fluoroethyl)-1-oxo-phthalazin-2-yl]-N-pyrimidin-2-yl-acetamide] | > 15 | 32 | – | –
CC(C)c1nn(CC(=O)Nc2cncc(F)c2)c(=O)c2ccc(Br)cc12 [Example 122, 2-(6-bromo-1-oxo-4-propan-2-ylphthalazin-2-yl)-N-(5-fluoropyridin-3-yl)acetamide] | < 10 | 1.28 | – | –
CC(C)c1nn(CC(=O)NCC2CCCN2C(=O)OC(C)(C)C)c(=O)c2ccc(Br)cc12 (stereo not drawn) [Example 107, tert-butyl 2-[[[2-(6-bromo-4-isopropyl-1-oxo-phthalazin-2-yl)acetyl]amino]methyl]pyrrolidine-1-carboxylate] | > 15 | > 50 | – | –
CC(C)c1nn(CC(=O)NC(C)c2ccccc2)c(=O)c2ccc(Br)cc12 (stereo not drawn) [Example 72, 2-(6-bromo-1-oxo-4-propan-2-ylphthalazin-2-yl)-N-(1-phenylethyl)acetamide] | < 10 | 9.04 | – | –
CC(F)c1nn(CC(=O)Nc2ncc(F)cn2)c(=O)c2ccc(Br)c(F)c12 (stereo not drawn) [Example 144, 2-[6-bromo-5-fluoro-4-(1-fluoroethyl)-1-oxophthalazin-2-yl]-N-(5-fluoropyrimidin-2-yl)acetamide] | < 10 | 0.191 | – | –
CC(F)(F)c1nn(CC(=O)Nc2ncncc2F)c(=O)c2ccc(Br)cc12 [Example 13, 2-[6-bromo-4-(1,1-difluoroethyl)-1-oxophthalazin-2-yl]-N-(5-fluoropyrimidin-4-yl)acetamide] | < 10 | 2.32 | – | –
O=C(Cn1nc(C(F)F)c2ccc(Br)cc2c1=O)Nc1ncc(F)cn1 [Example 104, 2-[7-bromo-4-(difluoromethyl)-1-oxophthalazin-2-yl]-N-(5-fluoropyrimidin-2-yl)acetamide] | < 10 | 6.99 | – | –
